{
  "source": "patent US10336732B2",
  "about": "“1-heterocyclyl isochromanyl compounds and analogs for treating CNS disorders” (Sunovion Pharmaceuticals Inc., priority 2015, dated 2019)",
  "data": [
    {"test_system": "mice", "experiment": "Neuropharmacological assay (SmartCube), behavioral signature of compound-treated mice", "type": "in vivo", "conditions": "i.p. 15 min before behavioral test, most efficacious dose(s) of 3 doses", "outline": "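Mice received compound i.p. in NMP/PEG/propylene glycol vehicle at 3 doses, 15 min before testing. Video-captured behavior was algorithmically compared with a reference-drug signature database.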", "values": [
      {"smiles": "c1cc2c(c3c1CCO[C@H]3[C@@H]1CCCN1)OCO2", "note": "[Compound I-52, (S)-2-((R)-7,9-dihydro-6H-[1,3]dioxolo[4,5-h]isochromen-9-yl)pyrrolidine]", "AD: ADHD (probability that behavioral signature matches class)": "+ (LOQ ≤ + <5%)", "AG: analgesic (probability that behavioral signature matches class)": "++ (5% ≤ ++ <25%)", "AX: anxiolytic (probability that behavioral signature matches class)": "++++ (50% ≤ ++++)", "CE: cognitive enhancer (probability that behavioral signature matches class)": "++ (5% ≤ ++ <25%)", "DP: anti-depressant (probability that behavioral signature matches class)": "++ (5% ≤ ++ <25%)", "HA: hallucinogen (probability that behavioral signature matches class)": "+ (LOQ ≤ + <5%)", "MS: mood stabilizer (probability that behavioral signature matches class)": "+ (LOQ ≤ + <5%)", "PS: anti-psychotic (probability that behavioral signature matches class)": "++ (5% ≤ ++ <25%)", "SD: sedative hypnotic (probability that behavioral signature matches class)": "+ (LOQ ≤ + <5%)", "UN: uncharacterized CNS activity (probability that behavioral signature matches class)": "+++ (25% ≤ +++ <50%)", "XG: anxiogenic (probability that behavioral signature matches class)": "+ (LOQ ≤ + <5%)"},
      {"smiles": "c1c2c(cc3c1OCO3)[C@@H]([C@@H]1CCCN1)OCC2", "note": "[Compound I-53, (S)-2-((S)-7,8-dihydro-5H-[1,3]dioxolo[4,5-g]isochromen-5-yl)pyrrolidine]", "AD: ADHD (probability that behavioral signature matches class)": "+ (LOQ ≤ + <5%)", "AG: analgesic (probability that behavioral signature matches class)": "+ (LOQ ≤ + <5%)", "AX: anxiolytic (probability that behavioral signature matches class)": "+ (LOQ ≤ + <5%)", "CE: cognitive enhancer (probability that behavioral signature matches class)": "+ (LOQ ≤ + <5%)", "DP: anti-depressant (probability that behavioral signature matches class)": "+ (LOQ ≤ + <5%)", "HA: hallucinogen (probability that behavioral signature matches class)": "+ (LOQ ≤ + <5%)", "MS: mood stabilizer (probability that behavioral signature matches class)": "+ (LOQ ≤ + <5%)", "PS: anti-psychotic (probability that behavioral signature matches class)": "+ (LOQ ≤ + <5%)", "SD: sedative hypnotic (probability that behavioral signature matches class)": "+ (LOQ ≤ + <5%)", "UN: uncharacterized CNS activity (probability that behavioral signature matches class)": "+ (LOQ ≤ + <5%)", "XG: anxiogenic (probability that behavioral signature matches class)": "+ (LOQ ≤ + <5%)"},
      {"smiles": "c1c2c(cc3c1OCO3)[C@H]([C@@H]1CCCN1)OCC2", "note": "[Compound I-54, (S)-2-((R)-7,8-dihydro-5H-[1,3]dioxolo[4,5-g]isochromen-5-yl)pyrrolidine]", "AD: ADHD (probability that behavioral signature matches class)": "+ (LOQ ≤ + <5%)", "AG: analgesic (probability that behavioral signature matches class)": "++ (5% ≤ ++ <25%)", "AX: anxiolytic (probability that behavioral signature matches class)": "+++ (25% ≤ +++ <50%)", "CE: cognitive enhancer (probability that behavioral signature matches class)": "++ (5% ≤ ++ <25%)", "DP: anti-depressant (probability that behavioral signature matches class)": "+++ (25% ≤ +++ <50%)", "HA: hallucinogen (probability that behavioral signature matches class)": "+ (LOQ ≤ + <5%)", "MS: mood stabilizer (probability that behavioral signature matches class)": "++ (5% ≤ ++ <25%)", "PS: anti-psychotic (probability that behavioral signature matches class)": "++ (5% ≤ ++ <25%)", "SD: sedative hypnotic (probability that behavioral signature matches class)": "+ (LOQ ≤ + <5%)", "UN: uncharacterized CNS activity (probability that behavioral signature matches class)": "+ (LOQ ≤ + <5%)", "XG: anxiogenic (probability that behavioral signature matches class)": "+ (LOQ ≤ + <5%)"},
      {"smiles": "c1cc(-c2ccc3c(c2)CCO[C@@H]3[C@@H]2CCCN2)on1", "note": "[Compound I-55, 5-((S)-1-((S)-pyrrolidin-2-yl)isochroman-6-yl)isoxazole]", "AD: ADHD (probability that behavioral signature matches class)": "+ (LOQ ≤ + <5%)", "AG: analgesic (probability that behavioral signature matches class)": "+ (LOQ ≤ + <5%)", "AX: anxiolytic (probability that behavioral signature matches class)": "+ (LOQ ≤ + <5%)", "CE: cognitive enhancer (probability that behavioral signature matches class)": "+ (LOQ ≤ + <5%)", "DP: anti-depressant (probability that behavioral signature matches class)": "+ (LOQ ≤ + <5%)", "HA: hallucinogen (probability that behavioral signature matches class)": "+ (LOQ ≤ + <5%)", "MS: mood stabilizer (probability that behavioral signature matches class)": "+ (LOQ ≤ + <5%)", "PS: anti-psychotic (probability that behavioral signature matches class)": "+ (LOQ ≤ + <5%)", "SD: sedative hypnotic (probability that behavioral signature matches class)": "+ (LOQ ≤ + <5%)", "UN: uncharacterized CNS activity (probability that behavioral signature matches class)": "+ (LOQ ≤ + <5%)", "XG: anxiogenic (probability that behavioral signature matches class)": "+ (LOQ ≤ + <5%)"},
      {"smiles": "c1cc(-c2ccc3c(c2)CCO[C@H]3[C@@H]2CCCN2)on1", "note": "[Compound I-56, 5-((R)-1-((S)-pyrrolidin-2-yl)isochroman-6-yl)isoxazole]", "AD: ADHD (probability that behavioral signature matches class)": "++ (5% ≤ ++ <25%)", "AG: analgesic (probability that behavioral signature matches class)": "+++ (25% ≤ +++ <50%)", "AX: anxiolytic (probability that behavioral signature matches class)": "++ (5% ≤ ++ <25%)", "CE: cognitive enhancer (probability that behavioral signature matches class)": "++ (5% ≤ ++ <25%)", "DP: anti-depressant (probability that behavioral signature matches class)": "+++ (25% ≤ +++ <50%)", "HA: hallucinogen (probability that behavioral signature matches class)": "+ (LOQ ≤ + <5%)", "MS: mood stabilizer (probability that behavioral signature matches class)": "++ (5% ≤ ++ <25%)", "PS: anti-psychotic (probability that behavioral signature matches class)": "++ (5% ≤ ++ <25%)", "SD: sedative hypnotic (probability that behavioral signature matches class)": "+ (LOQ ≤ + <5%)", "UN: uncharacterized CNS activity (probability that behavioral signature matches class)": "+ (LOQ ≤ + <5%)", "XG: anxiogenic (probability that behavioral signature matches class)": "+ (LOQ ≤ + <5%)"},
      {"smiles": "c1ccc(-c2ccc3c(c2)CCO[C@@H]3[C@@H]2CCCN2)nc1", "note": "[Compound I-57, 2-((S)-1-((S)-pyrrolidin-2-yl)isochroman-6-yl)pyridine]", "AD: ADHD (probability that behavioral signature matches class)": "+ (LOQ ≤ + <5%)", "AG: analgesic (probability that behavioral signature matches class)": "+ (LOQ ≤ + <5%)", "AX: anxiolytic (probability that behavioral signature matches class)": "+ (LOQ ≤ + <5%)", "CE: cognitive enhancer (probability that behavioral signature matches class)": "+ (LOQ ≤ + <5%)", "DP: anti-depressant (probability that behavioral signature matches class)": "+ (LOQ ≤ + <5%)", "HA: hallucinogen (probability that behavioral signature matches class)": "+ (LOQ ≤ + <5%)", "MS: mood stabilizer (probability that behavioral signature matches class)": "+ (LOQ ≤ + <5%)", "PS: anti-psychotic (probability that behavioral signature matches class)": "+ (LOQ ≤ + <5%)", "SD: sedative hypnotic (probability that behavioral signature matches class)": "+ (LOQ ≤ + <5%)", "UN: uncharacterized CNS activity (probability that behavioral signature matches class)": "+ (LOQ ≤ + <5%)", "XG: anxiogenic (probability that behavioral signature matches class)": "+ (LOQ ≤ + <5%)"},
      {"smiles": "c1ccc(-c2ccc3c(c2)CCO[C@H]3[C@@H]2CCCN2)nc1", "note": "[Compound I-58, 2-((R)-1-((S)-pyrrolidin-2-yl)isochroman-6-yl)pyridine]", "AD: ADHD (probability that behavioral signature matches class)": "+ (LOQ ≤ + <5%)", "AG: analgesic (probability that behavioral signature matches class)": "++ (5% ≤ ++ <25%)", "AX: anxiolytic (probability that behavioral signature matches class)": "++ (5% ≤ ++ <25%)", "CE: cognitive enhancer (probability that behavioral signature matches class)": "+ (LOQ ≤ + <5%)", "DP: anti-depressant (probability that behavioral signature matches class)": "+++ (25% ≤ +++ <50%)", "HA: hallucinogen (probability that behavioral signature matches class)": "+ (LOQ ≤ + <5%)", "MS: mood stabilizer (probability that behavioral signature matches class)": "++ (5% ≤ ++ <25%)", "PS: anti-psychotic (probability that behavioral signature matches class)": "++ (5% ≤ ++ <25%)", "SD: sedative hypnotic (probability that behavioral signature matches class)": "+ (LOQ ≤ + <5%)", "UN: uncharacterized CNS activity (probability that behavioral signature matches class)": "+ (LOQ ≤ + <5%)", "XG: anxiogenic (probability that behavioral signature matches class)": "+ (LOQ ≤ + <5%)"},
      {"smiles": "CC1(C)CN[C@H]([C@@H]2OCCc3ccccc32)C1", "note": "[Compound I-59, (S)-2-((R)-isochroman-1-yl)-4,4-dimethylpyrrolidine]", "AD: ADHD (probability that behavioral signature matches class)": "+ (LOQ ≤ + <5%)", "AG: analgesic (probability that behavioral signature matches class)": "+ (LOQ ≤ + <5%)", "AX: anxiolytic (probability that behavioral signature matches class)": "++ (5% ≤ ++ <25%)", "CE: cognitive enhancer (probability that behavioral signature matches class)": "++ (5% ≤ ++ <25%)", "DP: anti-depressant (probability that behavioral signature matches class)": "++ (5% ≤ ++ <25%)", "HA: hallucinogen (probability that behavioral signature matches class)": "+ (LOQ ≤ + <5%)", "MS: mood stabilizer (probability that behavioral signature matches class)": "++ (5% ≤ ++ <25%)", "PS: anti-psychotic (probability that behavioral signature matches class)": "++ (5% ≤ ++ <25%)", "SD: sedative hypnotic (probability that behavioral signature matches class)": "+ (LOQ ≤ + <5%)", "UN: uncharacterized CNS activity (probability that behavioral signature matches class)": "+ (LOQ ≤ + <5%)", "XG: anxiogenic (probability that behavioral signature matches class)": "+ (LOQ ≤ + <5%)"},
      {"smiles": "CC1(C)CN[C@H]([C@H]2OCCc3ccccc32)C1", "note": "[Compound I-60, (S)-2-((S)-isochroman-1-yl)-4,4-dimethylpyrrolidine]", "AD: ADHD (probability that behavioral signature matches class)": "+ (LOQ ≤ + <5%)", "AG: analgesic (probability that behavioral signature matches class)": "++ (5% ≤ ++ <25%)", "AX: anxiolytic (probability that behavioral signature matches class)": "++ (5% ≤ ++ <25%)", "CE: cognitive enhancer (probability that behavioral signature matches class)": "++ (5% ≤ ++ <25%)", "DP: anti-depressant (probability that behavioral signature matches class)": "++ (5% ≤ ++ <25%)", "HA: hallucinogen (probability that behavioral signature matches class)": "+ (LOQ ≤ + <5%)", "MS: mood stabilizer (probability that behavioral signature matches class)": "+ (LOQ ≤ + <5%)", "PS: anti-psychotic (probability that behavioral signature matches class)": "+++ (25% ≤ +++ <50%)", "SD: sedative hypnotic (probability that behavioral signature matches class)": "++ (5% ≤ ++ <25%)", "UN: uncharacterized CNS activity (probability that behavioral signature matches class)": "++ (5% ≤ ++ <25%)", "XG: anxiogenic (probability that behavioral signature matches class)": "+ (LOQ ≤ + <5%)"},
      {"smiles": "CC1(C)CN[C@@H]([C@@H]2OCCc3ccccc32)C1", "note": "[Compound I-61, (R)-2-((R)-isochroman-1-yl)-4,4-dimethylpyrrolidine]", "AD: ADHD (probability that behavioral signature matches class)": "+ (LOQ ≤ + <5%)", "AG: analgesic (probability that behavioral signature matches class)": "+++ (25% ≤ +++ <50%)", "AX: anxiolytic (probability that behavioral signature matches class)": "++ (5% ≤ ++ <25%)", "CE: cognitive enhancer (probability that behavioral signature matches class)": "+ (LOQ ≤ + <5%)", "DP: anti-depressant (probability that behavioral signature matches class)": "++ (5% ≤ ++ <25%)", "HA: hallucinogen (probability that behavioral signature matches class)": "+ (LOQ ≤ + <5%)", "MS: mood stabilizer (probability that behavioral signature matches class)": "++ (5% ≤ ++ <25%)", "PS: anti-psychotic (probability that behavioral signature matches class)": "++ (5% ≤ ++ <25%)", "SD: sedative hypnotic (probability that behavioral signature matches class)": "+ (LOQ ≤ + <5%)", "UN: uncharacterized CNS activity (probability that behavioral signature matches class)": "+ (LOQ ≤ + <5%)", "XG: anxiogenic (probability that behavioral signature matches class)": "++ (5% ≤ ++ <25%)"},
      {"smiles": "CC1(C)CN[C@@H]([C@H]2OCCc3ccccc32)C1", "note": "[Compound I-62, (R)-2-((S)-isochroman-1-yl)-4,4-dimethylpyrrolidine]", "AD: ADHD (probability that behavioral signature matches class)": "+ (LOQ ≤ + <5%)", "AG: analgesic (probability that behavioral signature matches class)": "++ (5% ≤ ++ <25%)", "AX: anxiolytic (probability that behavioral signature matches class)": "++ (5% ≤ ++ <25%)", "CE: cognitive enhancer (probability that behavioral signature matches class)": "+++ (25% ≤ +++ <50%)", "DP: anti-depressant (probability that behavioral signature matches class)": "++ (5% ≤ ++ <25%)", "HA: hallucinogen (probability that behavioral signature matches class)": "+ (LOQ ≤ + <5%)", "MS: mood stabilizer (probability that behavioral signature matches class)": "+ (LOQ ≤ + <5%)", "PS: anti-psychotic (probability that behavioral signature matches class)": "++ (5% ≤ ++ <25%)", "SD: sedative hypnotic (probability that behavioral signature matches class)": "+ (LOQ ≤ + <5%)", "UN: uncharacterized CNS activity (probability that behavioral signature matches class)": "+ (LOQ ≤ + <5%)", "XG: anxiogenic (probability that behavioral signature matches class)": "+ (LOQ ≤ + <5%)"}
    ]}
  ]
}
